In general, pEC50 refers to the negative decadic logarithm of the EC50, by convention in mol/L. A high value points to a low EC50.

pEC50: −log10 of the molar value. Non-standard residues stand in square brackets, D forms with d. Residues, ends and D or L forms follow the SMILES beside them. ξ: configuration not given here. *: point of attachment. Ac6c(4-Ph-cis-to-N) = N[C@]1(C(=O)O)CC[C@H](c2ccccc2)CC1; ξAtc(5-Br) = NC1(C(=O)O)CCc2c(Br)cccc2C1; Pentanoyl = CCCCC(=O)*

Assay [1] addresses Melanocortin receptor 4 (Homo sapiens, UniProt P32245). In words: Agonist activity in HEK293 cells transfected with human MC4R by cAMP accumulation. It is filed as functional, cell-based.
The target of assay [2] is T1, Melanocyte-stimulating hormone receptor (Homo sapiens, UniProt Q01726). Briefly: Agonist activity at human MC1R at 10 uM. The format is functional.
T1 sequence (Q01726 whole entry, looked up): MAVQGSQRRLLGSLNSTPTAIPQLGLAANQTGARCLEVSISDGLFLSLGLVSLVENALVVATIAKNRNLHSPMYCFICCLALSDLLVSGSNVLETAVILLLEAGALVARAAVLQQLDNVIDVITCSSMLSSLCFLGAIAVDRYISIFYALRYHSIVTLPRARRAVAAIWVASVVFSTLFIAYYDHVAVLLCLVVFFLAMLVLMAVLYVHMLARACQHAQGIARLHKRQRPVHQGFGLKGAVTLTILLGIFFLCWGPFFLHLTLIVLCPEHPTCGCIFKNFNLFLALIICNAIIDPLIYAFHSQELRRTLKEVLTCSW
Assay [3] deals with T1, Melanocyte-stimulating hormone receptor. Briefly: Agonist activity at human MC1R at 50 uM. It is filed as functional.

Chain of Melanocortin receptor 4 (P32245 whole entry): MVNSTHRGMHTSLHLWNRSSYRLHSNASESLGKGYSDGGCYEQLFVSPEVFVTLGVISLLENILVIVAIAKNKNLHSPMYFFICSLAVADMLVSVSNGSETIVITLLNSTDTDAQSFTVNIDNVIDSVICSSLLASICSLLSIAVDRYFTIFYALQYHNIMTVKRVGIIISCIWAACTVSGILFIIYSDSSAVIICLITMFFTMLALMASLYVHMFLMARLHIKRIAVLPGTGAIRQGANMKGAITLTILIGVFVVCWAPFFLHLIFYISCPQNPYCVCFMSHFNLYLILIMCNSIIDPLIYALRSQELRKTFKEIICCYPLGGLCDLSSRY

In assay [1], `CCCCC(=O)N[C@]1(C(=O)N[C@H](Cc2ccccc2)C(=O)N[C@@H](CCCN=C(N)N)C(=O)N[C@@H](Cc2ccc3ccccc3c2)C(=O)NCC(N)=O)CC[C@H](c2ccccc2)CC1` showed a pEC50 of 7.30. For `CCCCNC(=O)NC1(C(=O)N[C@H](Cc2ccccc2)C(=O)N[C@@H](CCCN=C(N)N)C(=O)N[C@@H](Cc2c[nH]c3ccccc23)C(=O)Nc2ccccc2C(N)=O)CCc2c(Br)cccc2C1` (stereo not given in full), in assay [2], the Activity came out at 50%. The compound further gave a pEC50 in assay [1] of 7.82.

For the compound `CCCCC(=O)NC1(C(=O)N[C@H](Cc2ccccc2)C(=O)N[C@@H](CCCN=C(N)N)C(=O)N[C@@H](Cc2c[nH]c3ccccc23)C(=O)NCC(N)=O)CCc2c(Br)cccc2C1` (stereo not given in full) (Pentanoyl-[ξAtc(5-Br)][dF]RWG-NH2), in assay [3], the Activity turned out to be 50%.

As to `N=C(N)NCCC[C@H](NC(=O)[C@@H](Cc1ccccc1)NC(=O)[C@]1(NC(=O)Cc2ccccc2)CC[C@@H](c2ccccc2)CC1)C(=O)N[C@@H](Cc1c[nH]c2ccccc12)C(=O)NCc1ccc(C(N)=O)cc1`, the Activity in assay [2] came to 70%. For the same compound, in assay [1], the pEC50 is 9.00. In assay [3], `CCCCC(=O)N[C@]1(C(=O)N[C@H](Cc2ccccc2)C(=O)N[C@@H](CCCN=C(N)N)C(=O)N[C@@H](Cc2c[nH]c3ccccc23)C(=O)NCC(N)=O)CC[C@H](c2ccccc2)CC1` (Pentanoyl-[Ac6c(4-Ph-cis-to-N)][dF]RWG-NH2) gave an Activity of 25%. On to `CCCCNC(=O)N[C@]1(C(=O)N[C@H](Cc2ccccc2)C(=O)N[C@@H](CCCN=C(N)N)C(=O)N[C@@H](Cc2c[nH]c3ccccc23)C(=O)Nc2ccccc2C(N)=O)CC[C@H](c2ccccc2)CC1`, for which the Activity in assay [2] was determined as 75%. In assay [1], this compound showed a negative logarithm of the EC50 (pEC50) of 8.70.

In assay [3], `CCCCC(=O)N[C@]1(C(=O)N[C@H](Cc2ccccc2)C(=O)N[C@@H](CCCN=C(N)N)C(=O)NC(Cc2ccc3ccccc3c2)C(=O)NCC(N)=O)CC[C@H](c2ccccc2)CC1` (stereo not given in full) yielded an Activity of 60%. For `CCCC(=O)NC1(C(=O)N[C@H](Cc2ccccc2)C(=O)N[C@@H](CCCN=C(N)N)C(=O)N[C@@H](Cc2c[nH]c3ccccc23)C(=O)Nc2ccccc2C(N)=O)CCc2c(Br)cccc2C1` (stereo not given in full), the Activity in assay [3] was 65%. The negative-log EC50 (pEC50) in assay [1] was 7.82. As for `N=C(N)NCCC[C@H](NC(=O)[C@@H](Cc1ccccc1)NC(=O)[C@]1(NC(=O)Cc2ccccc2)CC[C@@H](c2ccccc2)CC1)C(=O)N[C@@H](Cc1c[nH]c2ccccc12)C(=O)Nc1ccccc1C(N)=O`, the Activity in assay [2] came out at 75%. Besides, the pEC50 in assay [1] was 8.52. In assay [3], `CCCCNC(=O)N[C@]1(C(=O)N[C@H](Cc2ccccc2)C(=O)N[C@@H](CCCN=C(N)N)C(=O)N[C@@H](Cc2c[nH]c3ccccc23)C(=O)N[C@@H](C)C(N)=O)CC[C@H](c2ccccc2)CC1` registered an Activity of 25%. This compound also gave a pEC50 in assay [1] of 8.70. On the same counts, the results for `CCCC(=O)N[C@]1(C(=O)N[C@H](Cc2ccccc2)C(=O)N[C@@H](CCCN=C(N)N)C(=O)N[C@@H](Cc2c[nH]c3ccccc23)C(=O)NCCC(N)=O)CC[C@H](c2ccccc2)CC1` are 50% and 8.30. The compound `NC(=O)CNC(=O)[C@H](Cc1c[nH]c2ccccc12)NC(=O)[C@H](CCCN=C(N)N)NC(=O)[C@@H](Cc1ccccc1)NC(=O)[C@]1(NC(=O)Cc2ccccc2)CC[C@@H](c2ccccc2)CC1` returned an Activity in assay [2] of 30%. The compound also had a pEC50 in assay [1] of 8.70. In the same order, the values of `CCCC(=O)N[C@]1(C(=O)N[C@H](Cc2ccccc2)C(=O)N[C@@H](CCCN=C(N)N)C(=O)N[C@@H](Cc2c[nH]c3ccccc23)C(=O)NCc2ccc(C(N)=O)cc2)CC[C@H](c2ccccc2)CC1` are 50% and 9.00. In turn, `CCCCNC(=O)N[C@]1(C(=O)N[C@H](Cc2ccccc2)C(=O)N[C@@H](CCCN=C(N)N)C(=O)N[C@@H](Cc2c[nH]c3ccccc23)C(=O)NCCC(N)=O)CC[C@H](c2ccccc2)CC1` registered an Activity in assay [3] of 50%. The compound further showed a pEC50 in assay [1] of 8.70. With `CCCCNC(=O)N[C@]1(C(=O)N[C@H](Cc2ccccc2)C(=O)N[C@@H](CCCN=C(N)N)C(=O)N[C@@H](Cc2c[nH]c3ccccc23)C(=O)NCc2cccc(C(N)=O)c2)CC[C@H](c2ccccc2)CC1`, the Activity in assay [2] amounted to 60%. The compound also showed a pEC50 in assay [1] of 8.70. In the case of `CCCC(=O)N[C@]1(C(=O)N[C@H](Cc2ccccc2)C(=O)N[C@@H](CCCN=C(N)N)C(=O)N[C@@H](Cc2c[nH]c3ccccc23)C(=O)N[C@@H](C)C(N)=O)CC[C@H](c2ccccc2)CC1`, the Activity in assay [3] worked out at 25%. Moreover, in assay [1], the pEC50 was 8.52. Take `N=C(N)NCCC[C@H](NC(=O)[C@@H](Cc1ccccc1)NC(=O)[C@]1(NC(=O)Cc2ccccc2)CC[C@@H](c2ccccc2)CC1)C(=O)N[C@@H](Cc1c[nH]c2ccccc12)C(=O)NCc1cccc(C(N)=O)c1`: the Activity in assay [2] was 60%. The compound further showed a pEC50 in assay [1] of 8.70. The compound `CCCC(=O)N[C@]1(C(=O)N[C@H](Cc2ccccc2)C(=O)N[C@@H](CCCN=C(N)N)C(=O)N[C@@H](Cc2ccc3ccccc3c2)C(=O)Nc2ccccc2C(N)=O)CC[C@H](c2ccccc2)CC1` had a negative logarithm of the EC50 (pEC50) in assay [1] of 7.41. Compound `CCCCNC(=O)N[C@]1(C(=O)N[C@H](Cc2ccccc2)C(=O)N[C@@H](CCCN=C(N)N)C(=O)N[C@@H](Cc2c[nH]c3ccccc23)C(=O)NCC(N)=O)CC[C@H](c2ccccc2)CC1` returned an Activity in assay [2] of 55%. Moreover, in assay [1], the pEC50 is 8.70. Take `CCCC(=O)N[C@]1(C(=O)N[C@H](Cc2ccccc2)C(=O)N[C@@H](CCCN=C(N)N)C(=O)N[C@@H](Cc2ccc3ccccc3c2)C(=O)NCc2ccc(C(N)=O)cc2)CC[C@H](c2ccccc2)CC1`: the negative-log EC50 (pEC50) in assay [1] was 7.07.

On to `NC(=O)CCNC(=O)[C@H](Cc1c[nH]c2ccccc12)NC(=O)[C@H](CCCN=C(N)N)NC(=O)[C@@H](Cc1ccccc1)NC(=O)[C@]1(NC(=O)Cc2ccccc2)CC[C@@H](c2ccccc2)CC1`, for which the Activity in assay [2] was found to be 45%. This compound also showed a pEC50 in assay [1] of 8.30. Turning to `C[C@H](NC(=O)[C@H](Cc1c[nH]c2ccccc12)NC(=O)[C@H](CCCN=C(N)N)NC(=O)[C@@H](Cc1ccccc1)NC(=O)[C@]1(NC(=O)Cc2ccccc2)CC[C@@H](c2ccccc2)CC1)C(N)=O`, the Activity in assay [2] was 30%. The pEC50 in assay [1] is 8.52. In the same order, the values of `N=C(N)NCCC[C@H](NC(=O)[C@@H](Cc1ccccc1)NC(=O)C1(NC(=O)Cc2ccccc2)CCc2c(Br)cccc2C1)C(=O)N[C@@H](Cc1c[nH]c2ccccc12)C(=O)Nc1ccccc1C(N)=O` (stereo not given in full) are 50% and 7.96. With `CCCC(=O)NC1(C(=O)N[C@H](Cc2ccccc2)C(=O)N[C@@H](CCCN=C(N)N)C(=O)N[C@@H](Cc2ccc3ccccc3c2)C(=O)Nc2ccccc2C(N)=O)CCc2c(Br)cccc2C1` (stereo not given in full), the pEC50 in assay [1] is 7.14.

With `CCCC(=O)N[C@]1(C(=O)N[C@H](Cc2ccccc2)C(=O)N[C@@H](CCCN=C(N)N)C(=O)N[C@@H](Cc2ccc3ccccc3c2)C(=O)NCc2cccc(C(N)=O)c2)CC[C@H](c2ccccc2)CC1`, the negative-log EC50 (pEC50) in assay [1] is 6.96. On the same count and under the same terms, the figure for `CCCC(=O)N[C@]1(C(=O)N[C@H](Cc2ccccc2)C(=O)N[C@@H](CCCN=C(N)N)C(=O)N[C@@H](Cc2ccc3ccccc3c2)C(=O)NCCC(N)=O)CC[C@H](c2ccccc2)CC1` is 7.05. In the case of `CCCC(=O)N[C@]1(C(=O)N[C@H](Cc2ccccc2)C(=O)N[C@@H](CCCN=C(N)N)C(=O)N[C@@H](Cc2c[nH]c3ccccc23)C(=O)Nc2ccccc2C(N)=O)CC[C@H](c2ccccc2)CC1`, the Activity in assay [2] amounted to 60%. Also, the pEC50 in assay [1] is 8.70.

Source of the values: ChEMBL document CHEMBL1141965, “Preparation of human Melanocortin-4 receptor agonist libraries: linear peptides X-Y-DPhe7-Arg8-Trp(or 2-Nal)9-Z-NH2” (Bioorg Med Chem Lett, 2005).
